Data from ChEMBL document CHEMBL1127164, “Dihydropyridine KATP potassium channel openers” (Bioorg Med Chem Lett, 1993).

Experiments:
Format in all cases: functional
Cavia porcellus [1] = species on record: Cavia porcellus; test: The compound was tested for […] activity against guinea pig detrusor (bladder) strip mildly depolarized with 15 mM KCl
Cavia porcellus [2] = species on record: Cavia porcellus; test: The compound was tested for […] activity against guinea pig vascular tissue (portal vein) strip mildly depolarized with 15 mM KCl
Cavia porcellus [3] = species on record: Cavia porcellus; test: The compound was tested for […] activity against guinea pig detrusor (bladder) strip contracted with 80 mM KCl
Cavia porcellus [4] = species on record: Cavia porcellus; test: Tested for percent increase of efflux rate constant of 50 uM of compound using guinea pig detrusor

| Compound | IC50 (Cavia porcellus [1]) [nM] | IC50 (Cavia porcellus [2]) [nM] | IC50 (Cavia porcellus [3]) [nM] | Increase (Cavia porcellus [4]) [%] |
| --- | --- | --- | --- | --- |
| O=C1CCCC2=C1C(c1ccc(-c3ccccc3)cc1)C1=C(O)CCCC1=N2 (stereo not drawn) | 1370 |  |  |  |
| O=[N+]([O-])c1cccc(C2C3=C(CCCC3)N=C3CCCC(O)=C32)c1 (stereo not drawn) | 510 |  |  |  |
| CC1=CC(c2cccc([N+](=O)[O-])c2)C2=C(O)CCCC2=N1 (stereo not drawn) | 660 |  |  |  |
| O=C1CCCC2=C1C(c1cccc([N+](=O)[O-])c1)C1=C(O)CCCC1=N2 (stereo not drawn) | 4440 | 100 | 47800 | 30.7 |
| COC(=O)C1=C(C)NC(C)=C(C(=O)OCCCN2CCC(c3ccccc3)(c3ccccc3)CC2)[C@@H]1c1cccc([N+](=O)[O-])c1 [DEXNIGULDIPINE] | > 30000 |  |  |  |
| COC(=O)C1=C(C)NC(C)=C(C(=O)OCCCN2CCC(c3ccccc3)(c3ccccc3)CC2)[C@H]1c1cccc([N+](=O)[O-])c1 [NIGULDIPINE] | > 30000 |  |  |  |

Molecules with a lower IC50 (Cavia porcellus [1]), results first:

| IC50 (Cavia porcellus [1]) [nM] | IC50 (Cavia porcellus [2]) [nM] | IC50 (Cavia porcellus [3]) [nM] | Compound | Increase (Cavia porcellus [4]) [%] |
| --- | --- | --- | --- | --- |
| 420 |  |  | N#Cc1ccc(C2C3=C(O)CCCC3=NC3=C2C(=O)CCC3)cc1C(F)(F)F (stereo not drawn) |  |
| 460 |  |  | O=C1CCCC2=C1C(c1ccc(F)c(Cl)c1)C1=C(O)CCCC1=N2 (stereo not drawn) |  |
| 160 | 9 |  | O=C1CCCC2=C1C(c1cc([N+](=O)[O-])cs1)C1=C(O)CCCC1=N2 (stereo not drawn) |  |
